Data as given in the CheMixHub viscosity set.

Test: xn = mol fraction of the nth substance listed

CC(C)CC(C)(C)C + c1ccccc1
308.15 K, 101 kPa
Conditions	viscosity [mPa·s]
x1 = 0.0565	0.5093
x1 = 0.1062	0.4873
x1 = 0.1666	0.4676
x1 = 0.2409	0.4496
x1 = 0.3214	0.436
x1 = 0.412	0.4255
x1 = 0.5227	0.4188
x1 = 0.6688	0.4174
x1 = 0.8154	0.423

O=C1CCCCC1 + CCCO
303.15 K, 101 kPa
Conditions	viscosity [mPa·s]
x1 = 0.1012	1.452
x1 = 0.2601	1.283
x1 = 0.4199	1.243
x1 = 0.5794	1.3
x1 = 0.7393	1.392
x1 = 0.8997	1.576

CC(=O)CC(C)C + CCOCCO
298.15 K, 101.33 kPa
Conditions	viscosity [mPa·s]
x1 = 0.1481	1.043
x1 = 0.2727	0.943
x1 = 0.3972	0.854
x1 = 0.511	0.782
x1 = 0.6235	0.718
x1 = 0.7252	0.664
x1 = 0.824	0.617
x1 = 0.8892	0.588

O=[PH2][O-].O=[PH2][O-].[Mn+2] + O
Conditions	viscosity [mPa·s]
298.15 K, 101.33 kPa, x1 = 0.0137	1.68

CC(=O)CC(C)C + CC(C)=O
298.15 K, 101 kPa
Conditions	viscosity [mPa·s]
x2 = 0.0872	0.5206
x2 = 0.2689	0.474
x2 = 0.3526	0.4524
x2 = 0.359	0.45
x2 = 0.5077	0.4139
x2 = 0.7067	0.366
x2 = 0.7731	0.3515
x2 = 0.8344	0.3373
x2 = 0.835	0.3362
x2 = 0.9323	0.3141

CCC(C)N (stereo not given) + Cc1ccccc1
303.15 K, 101 kPa
Conditions	viscosity [mPa·s]
x2 = 0.1499	0.4062
x2 = 0.216	0.4085
x2 = 0.2959	0.4124
x2 = 0.3889	0.419
x2 = 0.5124	0.4325
x2 = 0.613	0.4492
x2 = 0.7105	0.4679
x2 = 0.8708	0.4998

CC(=O)CC(C)C + CCCCCCCCCO
viscosity [mPa·s], 100 kPa
Conditions	x1 = 0.0834	x1 = 0.1721	x1 = 0.2398	x1 = 0.3469	x1 = 0.4365	x1 = 0.5577	x1 = 0.6608	x1 = 0.7339	x1 = 0.8594	x1 = 0.9502
293.15 K	9.91	8.52	7.62	6.42	5.48	4.28	3.31	2.64	1.6	0.93
303.15 K	6.85	5.94	5.34	4.49	3.86	3.05	2.42	1.99	1.27	0.78
313.15 K	4.92	4.29	3.87	3.27	2.82	2.27	1.82	1.51	1	0.65
323.15 K	3.63	3.18	2.88	2.45	2.13	1.73	1.4	1.18	0.81	0.55

CC(C)CC(C)(C)C + CC(C)O
viscosity [mPa·s], 101 kPa
Conditions	298.15 K	308.15 K
x1 = 0.0513	1.722	–
x1 = 0.0555	1.703	–
x1 = 0.1045	1.47	–
x1 = 0.1511	1.3	–
x1 = 0.2103	1.123	–
x1 = 0.2394	1.066	–
x1 = 0.2822	0.947	–
x1 = 0.4108	0.751	–
x1 = 0.4264	0.734	–
x1 = 0.5195	0.64	–
x1 = 0.5751	0.599	–
x1 = 0.6545	0.562	–
x1 = 0.6978	0.54	–
x1 = 0.8094	0.505	–
x1 = 0.9505	0.49	–
x2 = 0.05	0.482	0.432
x2 = 0.1	0.486	0.434
x2 = 0.1501	0.493	0.44
x2 = 0.2	0.503	0.447
x2 = 0.25	0.515	0.457
x2 = 0.3	0.53	0.468
x2 = 0.35	0.55	0.483
x2 = 0.4	0.576	0.501
x2 = 0.45	0.608	0.524
x2 = 0.5	0.646	0.552
x2 = 0.55	0.694	0.586
x2 = 0.6	0.751	0.628
x2 = 0.65	0.819	0.677
x2 = 0.7	0.901	0.736
x2 = 0.75	1.003	0.806
x2 = 0.8	1.122	0.898
x2 = 0.85	1.277	1.006
x2 = 0.9	1.407	1.145
x2 = 0.95	1.707	1.31

CCOCC + CCCCO
303.16 K, 101 kPa
Conditions	viscosity [mPa·s]
x1 = 0.09	1.958
x1 = 0.17	1.512
x1 = 0.27	0.9582
x1 = 0.4	0.8084
x1 = 0.51	0.6978
x1 = 0.6	0.5936
x1 = 0.67	0.4746
x1 = 0.74	0.3798
x1 = 0.81	0.291

CCOCC + CO
101 kPa
Conditions	viscosity [mPa·s]
298.15 K, x1 = 0.115	0.4734
298.15 K, x1 = 0.1893	0.4296
298.15 K, x1 = 0.2803	0.3846
298.15 K, x1 = 0.3957	0.3378
298.15 K, x1 = 0.5399	0.2953
298.15 K, x1 = 0.7319	0.2553
303.16 K, x1 = 0.04	0.4893
303.16 K, x1 = 0.09	0.4472
303.16 K, x1 = 0.13	0.4312
303.16 K, x1 = 0.2	0.3881
303.16 K, x1 = 0.27	0.3392
303.16 K, x1 = 0.37	0.2921
303.16 K, x1 = 0.51	0.2772
303.16 K, x1 = 0.67	0.2511
303.16 K, x1 = 0.85	0.2328

O=C1CCCCC1 + COc1ccccc1
viscosity [mPa·s], 101.33 kPa
Conditions	x1 = 0.1002	x1 = 0.2031	x1 = 0.303	x1 = 0.402	x1 = 0.5032	x1 = 0.6017	x1 = 0.7	x1 = 0.7976	x1 = 0.8978
298.15 K	1.048	1.096	1.131	1.194	1.245	1.331	1.44	1.558	1.732
303.15 K	0.968	1.004	1.044	1.092	1.151	1.22	1.304	1.421	1.578
308.15 K	0.905	0.93	0.966	1.012	1.06	1.127	1.207	1.306	1.444

CC(C)CC(C)(C)C + CCCCCCC
101 kPa
Conditions	viscosity [mPa·s]
293.15 K, x1 = 0.6	0.454
293.15 K, x1 = 0.8	0.473
298.15 K, x1 = 0.1802	0.4055
298.15 K, x1 = 0.2943	0.4133
298.15 K, x1 = 0.3739	0.4193
298.15 K, x1 = 0.4883	0.4269
298.15 K, x1 = 0.5806	0.4357
298.15 K, x1 = 0.6254	0.4399
298.15 K, x1 = 0.7244	0.4491
298.15 K, x1 = 0.799	0.4562
298.15 K, x1 = 0.8649	0.461
298.15 K, x1 = 0.9217	0.4665
298.15 K, x1 = 0.9641	0.4743
313.15 K, x1 = 0.2	0.343
313.15 K, x1 = 0.4	0.354
313.15 K, x1 = 0.6	0.366
313.15 K, x1 = 0.8	0.38

CCOCC + CCO
298.15 K, 101 kPa
Conditions	viscosity [mPa·s]
x1 = 0.1577	0.741
x1 = 0.3593	0.478
x1 = 0.4569	0.4
x1 = 0.5301	0.359
x1 = 0.6268	0.315
x1 = 0.6925	0.29
x1 = 0.7978	0.264

O=C1CCCCC1 + CCCCCCO
303.15 K, 101 kPa
Conditions	viscosity [mPa·s]
x1 = 0.1001	3.014
x1 = 0.2599	2.391
x1 = 0.4199	2.008
x1 = 0.5798	1.861
x1 = 0.7404	1.738

CC(C)CC(C)(C)C + CCCCCCCCCC
298.15 K, 101 kPa
Conditions	viscosity [mPa·s]
x1 = 0.08287	0.7981
x1 = 0.2249	0.7573
x1 = 0.3493	0.7059
x1 = 0.4309	0.6689
x1 = 0.5526	0.6214
x1 = 0.6412	0.5981
x1 = 0.735	0.5645
x1 = 0.8255	0.5303
x1 = 0.8936	0.512
x1 = 0.9357	0.4966
